This is an account of results in patent publication US11214578B2, “Urea/carbamates FAAH MAGL or dual FAAH/MAGL inhibitors and uses thereof” (Northeastern University, priority 2014, dated 2022).

Series [1] addresses T1, Rat MAGL (rMAGL) (Rattus norvegicus, UniProt Q8R431).
T1 construct: made in house; host or cells: E. coli
T1 sequence (Q8R431 1-303): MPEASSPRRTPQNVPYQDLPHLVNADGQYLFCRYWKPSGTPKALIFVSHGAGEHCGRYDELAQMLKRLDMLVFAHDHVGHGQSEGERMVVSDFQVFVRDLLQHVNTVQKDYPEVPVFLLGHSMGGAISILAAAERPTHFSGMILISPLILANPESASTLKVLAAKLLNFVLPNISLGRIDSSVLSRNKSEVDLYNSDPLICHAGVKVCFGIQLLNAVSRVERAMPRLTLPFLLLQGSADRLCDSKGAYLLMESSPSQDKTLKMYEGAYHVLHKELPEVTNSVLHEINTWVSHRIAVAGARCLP
Nature of the series: Fluorescent assay protocol for rMAGL. The series is classed as biochemical. The settings on record: recombinant rat MAGL, procedure as for hMAGL; read-out: IC50 rMAGL. A digest of the protocol:
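Rat MAGL run as for the human enzyme: AHMMCE substrate hydrolysis to fluorescent coumarin followed at 25° C. for 120 min, read every 15 min at 360/460 nm.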

The target in series [2] is T2, ΔTM rat FAAH (Rattus norvegicus, UniProt P97612).
T2 construct: Preparation of Transmembrane Domain-Deleted Rat FAAH (ΔTM rFAAH); made in house; host or cells: E. coli
T2 sequence (P97612 30-579 limits assumed): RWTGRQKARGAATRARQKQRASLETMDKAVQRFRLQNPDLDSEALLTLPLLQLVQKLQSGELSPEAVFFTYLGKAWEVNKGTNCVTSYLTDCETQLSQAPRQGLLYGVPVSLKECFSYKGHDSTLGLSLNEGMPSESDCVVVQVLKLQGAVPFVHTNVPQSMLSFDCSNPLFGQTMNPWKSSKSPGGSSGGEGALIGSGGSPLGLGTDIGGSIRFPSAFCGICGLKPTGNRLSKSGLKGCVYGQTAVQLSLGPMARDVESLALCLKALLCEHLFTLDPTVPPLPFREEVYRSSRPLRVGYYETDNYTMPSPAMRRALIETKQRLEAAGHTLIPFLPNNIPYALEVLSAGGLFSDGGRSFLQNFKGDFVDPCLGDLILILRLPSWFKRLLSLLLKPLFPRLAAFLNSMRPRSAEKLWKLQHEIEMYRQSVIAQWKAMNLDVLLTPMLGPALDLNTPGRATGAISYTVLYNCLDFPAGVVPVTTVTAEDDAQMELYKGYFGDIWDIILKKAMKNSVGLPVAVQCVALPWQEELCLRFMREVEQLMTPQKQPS
Nature of the series: Fluorescent assay protocol for ΔTM rat FAAH (AAMCA substrate). The class given is biochemical. The settings on record: 15 min preincubation, read-out: IC50 rFAAH. An outline of the steps:
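ΔTM rat FAAH (15 μg) was pre-incubated 15 min at 25° C with compound (screening at 1, 10 and 100 μM), then reacted with the fluorigenic substrate AAMCA. Percent inhibition came from fluorescence at 3 h (linear kinetics) relative to no-inhibitor controls, in triplicate.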

Series [3] is described as follows: Blood brain barrier (BBB) permeability studies. The conditions noted are these: brain and plasma; blood-brain distribution, in vivo; read-out: brain/plasma ratio. An excerpt:
Novel compounds were studied for their abilities to cross the blood brain barrier based on procedures adapted from Cluny, et al (2010), British journal of pharmacology 161: 629; Rahn, et al (2011) Pharmacology biochemistry, and behavior 98: 493; Wood et al (2013) Life sciences 92: 482.

Series [4] addresses T3, Human FAAH (MBPΔTMhFAAH) (Homo sapiens, UniProt O00519).
T3 construct: made in house; host or cells: E. coli (pMALcE4 vector)
T3 sequence (O00519 30-579 limits assumed): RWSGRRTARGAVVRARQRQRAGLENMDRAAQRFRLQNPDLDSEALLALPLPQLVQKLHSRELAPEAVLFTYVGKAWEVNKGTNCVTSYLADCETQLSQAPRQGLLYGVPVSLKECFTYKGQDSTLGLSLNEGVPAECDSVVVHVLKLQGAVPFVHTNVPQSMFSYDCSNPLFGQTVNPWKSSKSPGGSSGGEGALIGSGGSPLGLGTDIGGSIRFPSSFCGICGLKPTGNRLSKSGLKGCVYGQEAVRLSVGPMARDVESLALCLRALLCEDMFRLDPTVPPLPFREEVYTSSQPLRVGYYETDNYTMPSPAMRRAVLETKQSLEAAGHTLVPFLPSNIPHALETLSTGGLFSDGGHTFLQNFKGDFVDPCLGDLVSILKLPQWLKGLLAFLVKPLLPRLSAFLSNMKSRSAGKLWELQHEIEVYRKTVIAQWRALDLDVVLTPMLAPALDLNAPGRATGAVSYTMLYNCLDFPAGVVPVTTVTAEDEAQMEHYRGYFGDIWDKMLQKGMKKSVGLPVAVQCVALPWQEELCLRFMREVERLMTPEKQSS
Nature of the series: Fluorescent assay protocol for hFAAH. The settings on record: human FAAH (MBP fusion, ΔTM), procedure as for rFAAH. The class given is biochemical. An outline of the steps:
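MBP-fused ΔTM human FAAH from E. coli, pre-incubated 15 min at 25 °C with compound in 50 mM HEPES, 1 mM EDTA, 0.1% BSA, pH 7.4 (DMSO below 8%). Substrate AAMCA 20 μM (2×Km); fluorescence (ex 360/em 460) at 3 h gave % inhibition vs uninhibited control, triplicate, IC50 fitted.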

Series [5] deals with T4, Human MAGL (hMAGL) (Homo sapiens, UniProt Q99685).
T4 construct: hexahistidine; made in house; host or cells: E. coli
T4 sequence (Q99685 1-303): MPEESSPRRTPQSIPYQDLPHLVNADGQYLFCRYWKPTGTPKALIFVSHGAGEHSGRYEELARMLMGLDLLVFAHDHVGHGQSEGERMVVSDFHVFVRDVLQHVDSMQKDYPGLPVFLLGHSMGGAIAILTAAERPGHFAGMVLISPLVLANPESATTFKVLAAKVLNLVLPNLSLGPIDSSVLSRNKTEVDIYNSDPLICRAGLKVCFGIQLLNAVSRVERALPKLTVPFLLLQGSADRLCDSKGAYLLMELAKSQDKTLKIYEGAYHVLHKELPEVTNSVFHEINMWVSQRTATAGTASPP
Nature of the series: Fluorescent assay protocol for hMAGL (AHMMCE substrate). The series is classed as biochemical. The settings on record: recombinant human MAGL, AHMMCE substrate, 15 min preincubation; read-out: IC50 hMAGL. An outline of the steps: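 Hydrolysis of AHMMCE by human MAGL was monitored at 25°C for 120 min, with fluorescence at 360/460 nm recorded every 15 min and converted to 4-methylcoumarin using external standards. IC50 values were derived from triplicate wells at each inhibitor concentration.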

As a reminder, the IC50 is the concentration at which inhibition is half-maximal. Turning to `C[C@H]1CN(C(=O)Nc2cccc(-c3cccc(C(N)=O)c3)c2)CCN1Cc1ccc2ccccc2n1` [Example 1, (S)—N-(3′-carbamoyl-[1,1′-biphenyl]-3-yl)-3-methyl-4-(quinolin-2-ylmethyl) piperazine-1-carboxamide], the half-inhibitory concentration (IC50) is more than 1 µM in series [1], 0.01 to 0.1 µM in series [2], 0.01 to 0.1 µM in series [4] and more than 1 µM in series [5]. In addition, the Kp in series [3] was determined as 0.03.

Consider `NC(=O)c1cccc(-c2cccc(NC(=O)N3CCC(c4ccccc4)CC3)c2)c1` [Example 7, N-(3′-carbamoyl-[1,1′-biphenyl]-3-yl)-4-phenylpiperidine-1-carboxamide], for which the IC50 in series [1] was more than 1 µM; in series [2] it was 0.01 to 0.1 µM; in series [4], 0.01 to 0.1 µM; in series [5], more than 1 µM. Also, the Kp in series [3] is 0.17.

Regarding `O=C(N1CC(OCc2ccc(Br)cc2)C1)n1cnc2ccccc21` [Example 87, (1H-Benzo[d]imidazol-1-yl)(3-(4-Bromobenzyloxy)azetidin-1-yl)methanone], the concentration for half-maximal inhibition (IC50) in series [1], in series [2], in series [4] and in series [5] was 0.01 to 0.1 µM throughout.

`O=C(N1CCCCC1)N1CC(OCc2ccc(Br)cc2)C1` [Example 88]: the IC50 in series [1], in series [2], in series [4] and in series [5] was 0.01 to 0.1 µM each time.

Turning to `O=C(N1CC(N2CCC(c3ccccc3)CC2)C1)n1cccn1` [Example 89, (3-(4-Phenylpiperidin-1-yl)azetidin-1-yl)(1H-pyrazol-1-yl)methanone], the IC50 in series [1], in series [2], in series [4] and in series [5] was 0.01 to 0.1 µM in each case.

For `O=C(N1CC(N2CCC(c3ccccc3)CC2)C1)n1cncn1` [Example 90], the 50% inhibitory concentration (IC50) in series [1], in series [2], in series [4] and in series [5] was 0.01 to 0.1 µM in each case.

Regarding `O=C(N1CC(Sc2ccc(Br)cc2)C1)n1cncn1` [Example 91], the half-maximal inhibitory concentration (IC50) in series [1], in series [2], in series [4] and in series [5] was 0.01 to 0.1 µM in each case.

On to `NC(=O)c1cccc(-c2cccc(NC(=O)N3C[C@@H]4C[C@H]3CN4Cc3ccc4ccccc4n3)c2)c1` [Example 92, (1S,4S)—N-(3′-carbamoyl-[1,1′-biphenyl]-3-yl)-5-(quinolin-2-ylmethyl)-2,5-diazabicyclo[2.2.1]heptane-2-carboxamide], for which the concentration for half-maximal inhibition (IC50) in series [1], in series [2], in series [4] and in series [5] was more than 1 µM throughout.

Turning to `N#Cc1cccc(-c2cccc(NC(=O)N3C[C@@H]4C[C@H]3CN4Cc3ccc4ccccc4n3)c2)c1` [Example 93, (1S,4S)—N-(3′-cyano-[1,1′-biphenyl]-3-yl)-5-(quinolin-2-ylmethyl)-2,5-diazabicyclo[2.2.1]heptane-2-carboxamide], the IC50 in series [1], in series [2], in series [4] and in series [5] was more than 1 µM each time.

As for `N#Cc1cccc(-c2cccc(NC(=O)N3C[C@@H]4C[C@H]3CN4Cc3cccc(-c4ccccc4)c3)c2)c1` [Example 94, (1S,4S)-5-([1,1′-biphenyl]-3-ylmethyl)-N-(3′-cyano-[1,1′-biphenyl]-3-yl)-2,5-diazabicyclo[2.2.1]heptane-2-carboxamide], the IC50 in series [1] was more than 1 µM; in series [2] it was 0.11 to 1 µM; in series [4], 0.11 to 1 µM; in series [5] it was more than 1 µM.

For `O=C(N1C[C@@H]2C[C@H]1CN2c1ccccn1)n1cnc(-c2ccccc2)c1` [Example 96, (4-phenyl-1H-imidazol-1-yl)((1S,4S)-5-(pyridin-2-yl)-2,5-diazabicyclo[2.2.1]heptan-2-yl)methanone], the IC50 in series [1] was more than 1 µM; in series [2], 0.01 to 0.1 µM; in series [4], 0.01 to 0.1 µM; in series [5] it was more than 1 µM.

Turning to `O=C(N1C[C@@H]2C[C@H]1CN2c1cccc(F)c1)n1cnc(-c2ccccc2)c1` [Example 97, ((1 S,4S)-5-(3-fluorophenyl)-2,5-diazabicyclo[2.2.1]heptan-2-yl)(4-phenyl-1H-imidazol-1-yl)methanone], the half-maximal inhibitory concentration (IC50) in series [1] is more than 1 µM; in series [2], 0.11 to 1 µM; in series [4] it was 0.11 to 1 µM; in series [5], more than 1 µM.

Turning to `O=C(N1C[C@@H]2C[C@H]1CN2Cc1cccc(-c2ccccc2)c1)n1cnc(-c2ccccc2)c1` [Example 99, ((1S,4S)-5-([1,1′-biphenyl]-3-ylmethyl)-2,5-diazabicyclo[2.2.1]heptan-2-yl)(4-phenyl-1H-imidazol-1-yl)methanone], the concentration for half-maximal inhibition (IC50) in series [1] is more than 1 µM; in series [2], 0.01 to 0.1 µM; in series [4], 0.11 to 1 µM; in series [5], more than 1 µM.

For `O=C(N1C[C@@H]2C[C@H]1CN2Cc1cccc(-c2ccccc2)c1)n1cnc(Br)c1` [Example 100, ((1S,4S)-5-([1,1′-biphenyl]-3-ylmethyl)-2,5-diazabicyclo[2.2.1]heptan-2-yl)(4-bromo-1H-imidazol-1-yl)methanone], the 50% inhibitory concentration (IC50) in series [1] was more than 1 µM; in series [2], 0.01 to 0.1 µM; in series [4] it was 0.01 to 0.1 µM; in series [5] it was more than 1 µM.

On to `O=C(Oc1ccccc1)N1C[C@@H]2C[C@H]1CN2Cc1cccc(-c2ccccc2)c1` [Example 101, phenyl (1S,4S)-5-([1,1′-biphenyl]-3-ylmethyl)-2,5-diazabicyclo[2.2.1]heptane-2-carboxylate], for which the half-inhibitory concentration (IC50) in series [1] was more than 1 µM; in series [2], 0.01 to 0.1 µM; in series [4] it was 0.01 to 0.1 µM; in series [5], more than 1 µM.
